The source of these data is patent US11473089B2, “Aptamer for ADAMTS5 and use for aptamer for ADAMTS5” (RIBOMIC INC., priority 2017, dated 2022).

Where two headings read alike, the source gives them in different places.

Data set [1] deals with T1, ADAMTS5 (Homo sapiens, UniProt Q9UNA0).
T1 construct: purchased R&D systems
T1 sequence (Q9UNA0 262-930): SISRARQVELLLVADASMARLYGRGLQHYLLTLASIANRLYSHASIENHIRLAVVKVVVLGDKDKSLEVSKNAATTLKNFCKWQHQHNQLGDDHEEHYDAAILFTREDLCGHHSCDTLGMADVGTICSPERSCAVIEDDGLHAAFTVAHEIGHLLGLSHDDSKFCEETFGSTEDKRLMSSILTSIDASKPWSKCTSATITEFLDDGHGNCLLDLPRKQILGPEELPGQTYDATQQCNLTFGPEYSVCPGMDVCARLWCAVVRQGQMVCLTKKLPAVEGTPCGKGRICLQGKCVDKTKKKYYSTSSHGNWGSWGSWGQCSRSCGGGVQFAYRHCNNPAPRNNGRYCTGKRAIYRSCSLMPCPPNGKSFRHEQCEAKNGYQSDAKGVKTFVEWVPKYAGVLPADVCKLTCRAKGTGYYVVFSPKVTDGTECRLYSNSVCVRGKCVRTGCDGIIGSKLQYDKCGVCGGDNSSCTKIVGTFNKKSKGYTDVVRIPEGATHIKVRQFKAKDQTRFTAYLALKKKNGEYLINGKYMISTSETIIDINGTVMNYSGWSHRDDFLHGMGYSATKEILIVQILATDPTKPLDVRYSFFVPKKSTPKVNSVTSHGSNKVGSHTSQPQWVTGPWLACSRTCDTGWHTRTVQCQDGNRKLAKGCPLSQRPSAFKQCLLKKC
Briefly: ADAMTS5 enzyme inhibition, aggrecan G1-IGD-G2 cleavage, SDS-PAGE detection (evaluation method 1). The format is biochemical. The following applies: for % inhibitory activity: Table 3, final concentration of the nucleic acid 30 nM; for Inhibitory activity against ADAMTS5: Table 4; for inhibition rate % (10 nM aptamer): Table 5; for inhibitory activity against ADAMTS5 (in words, compared with parent sequence): enzyme assay as in Example 1. As for the experimental part: Whether an aptamer having the nucleotide sequence shown in SEQ ID NO: 1 inhibits the enzyme activity of ADAMTS5 was evaluated by the following method. As a substrate of ADAMTS5, the G1-IGD-G2 domain of aggrecan (manufactured by R&D systems) was used. ADAMTS5 specifically cleaves in between the 392nd glutamic acid and the 393rd alanine in the G1-IGD-G2 domain and produces two fragments. These fragments have faster electrophoretic mobility than uncleaved G1-IGD-G2. Thus, the enzyme activity of ADAMTS5 can be measured by quantifying the band intensity of G1-IGD-G2 by SDS-PAGE electrophoresis. The assay was performed in a solution A buffer with a reaction mixture volume of 10 μL. First, a mixture (10 μL) of a nucleic acid and ADAMTS5 was prepared and incubated at 25° C. for 15 min. To a substrate solution (5 μL) diluted with solution A was added a mixture (5 μL) of the nucleic acid and ADAMTS5 to start the enzyme reaction. The final concentration of ADAMTS5 in the reaction solution was 5 nM, and the final substrate concentration was 50 μg/mL. The reaction solution was incubated at 37° C. for 2 hr, 2 μL of solution D was added, and the mixture was heated at 95° C. for 2 min to stop the enzyme reaction of ADAMTS5. Solution D contains 0.25 M tris (pH 6.8), 10% SDS, 50% glycerol, 0.25% bromo phenolblue, and 20% 2-mercaptoethanol. The heat-treated reaction solution was electrophoresed by 7.5% SDS-PAGE and stained with SYPRO Orange (manufactured by Sigma-Aldrich). The staining was performed according to the manual of Sigma-Aldrich and detected using STORM840 manufactured by GE Healthcare. For analytical curves, uncleaved substrates 1000 ng, 400 ng, 160 ng, 64 ng, 25.6 ng, 10.24 ng, and 4.1 ng were electrophoresed, and staining and detection were performed in the same manner. The amount of uncleaved substrate in each reaction solution was quantified from the band intensity and the standard curve. The substrate cleavage efficiency of ADAMTS5 under these reaction conditions was 80-100%. The inhibition rate of the test substance was calculated using the following equation. inhibition rate (%)=(Sapt−SE)/(S0−SE)×100 wherein Sapt is the amount of an uncleaved substrate with the addition of a test substance, SE is the residual amount of an uncleaved substrate with the addition of ADAMTS5, and S0 is the residual amount of an uncleaved substrate without the addition of ADAMTS5.
The concentration of an inhibitor necessary for inhibiting 50% of the enzyme activity (IC50) was determined. IC50 is a mean of four measurements.

The target of data set [2] is T1, ADAMTS5. The data set can be described thus: binding activity to ADAMTS5 by surface plasmon resonance (Biacore T100). The following applies: Table 10. As for the experimental part: The binding activity of aptamers having the nucleotide sequences shown in SEQ ID NOs: 1 and 2 to ADAMTS5 was evaluated by the surface plasmon resonance method. Biacore T100 manufactured by GE Healthcare was used for the measurement. The SA chip was used as the sensor chip, which had streptavidin immobilized thereon. About 800 RU of a 16-nucleotide Poly dT with biotin at the 5′-terminal was bound on the chip. […] ADAMTS5 for analyte was prepared at 0.1 μM, and injected at a flow rate of 30 μL/min for 60 sec. As the running buffer, solution C was used. The solution C is a mixed solution of 300 mM sodium chloride, 5.4 mM potassium chloride, 1.8 mM calcium chloride, 0.8 mM magnesium chloride, 20 mM tris (pH 7.6), and 0.05% Tween20.
SEQ ID NO: 2 has a sequence with one base deletion from the continuous 4 G bases in the consensus sequence, and it was shown from the measurement results of the binding activity that the continuous 4 G bases in the consensus sequence are important for the activity of aptamers. Sensorgram showing the binding of an aptamer having the nucleotide sequence shown in SEQ ID NO: 1 to ADAMTS5 is presented in FIG. 2. In Table 1, “++” indicates those with the proportion of ADAMTS5 binding amount (RU value) to the amount of aptamer immobilized on the SA chip (RU value) of not less than 40%, “+” indicates those with the proportion of not less than 10% and less than 40%, and “−” indicates those with the proportion of less than 10%.
The binding activity and enzyme inhibitory activity of aptamers having nucleotide sequences shown in SEQ ID NOs: 16-25 to ADAMTS5 were measured. The binding activity was evaluated by the surface plasmon resonance method. For the measurement, a method similar to that in Example 1 was used. The enzyme inhibitory activity was measured by a method similar to that in Example 1. […] The negative control nucleic acid refers to the nucleic acid pool used in the first round of the SELEX method. The “++” indicates those with the proportion of ADAMTS5 binding amount (RU value) to the amount of aptamer immobilized on the SA chip (RU value) of not less than 40%, and “+” indicates those with the proportion of less than 40%. […] “n.d.” means not determined.
The binding activity of the nucleic acids shown in SEQ ID NOs: 30-45 to ADAMTS5 was measured. The binding activity was evaluated by the surface plasmon resonance method. In the Table, “++” indicates those with the proportion of ADAMTS5 binding amount (RU value) to the amount of aptamer immobilized on the SA chip (RU value) of not less than 40%, “+” indicates those with the proportion of not less than 10% and less than 40%, and “−” indicates those with the proportion of less than 10%.
In general terms: Surface plasmon resonance follows binding to a sensor surface in real time, without labels.

Where [3] appears, read: Table 9, electrophoresis detection, 10 nM nucleic acid.

On to “3 (GGAUUGGGGCCUCCACAGCUGCUCAGCUUGGACUAAACCAAUCC; 2'-fluoro at CU, RNA at AG, backbone not given here) [compound 3]”, for which the “% inhibitory activity” value with ADAMTS5 [1] came to 36.4%. The “Inhibitory activity against ADAMTS5” value was 33.9% with ADAMTS5 [1] (nucleic acid concentration 10 nM) and 58.4% with ADAMTS5 [1] (nucleic acid concentration 30 nM). In the case of “4 (GGCUUGGGGCCUCCACAGCUGCUCAGCUUGGACUAAACCAAGCC; 2'-fluoro at CU, RNA at AG, backbone not given here) [compound 4]”, the “% inhibitory activity” value with ADAMTS5 [1] is 23%. Still for that read-out and setting: the value for “5 (GGCUUGGGGCCUCCACAGCGCUCGCUUGGACUAAACCAAGCC; 2'-fluoro at CU, RNA at AG, backbone not given here) [compound 5]” was 27%. The same measure, in the same setting: the value for “6 (GGCUUGGGGCCUCCACAGCUGUCAGCUUGGACUAAACCAAGCC; 2'-fluoro at CU, RNA at AG, backbone not given here) [compound 6]” was 33.7%; that for “7 (GGCUUGGGGCCUCCACAGCUGCUCAGCUUGGACUAACCAAGCC; 2'-fluoro at CU, RNA at AG, backbone not given here) [compound 7]” was −2.3%. As for “8 (GGCUUGGGGCCUCACAGCUGCUCAGCUUGACUAAACCAAGCC; 2'-fluoro at CU, RNA at AG, backbone not given here) [compound 8]”, the “% inhibitory activity” value with ADAMTS5 [1] is listed as −8.6%.

With “9 (GGAUUGGGGCCUCCACAGCGUCGCUUGGACUAAACCAAUCC; 2'-fluoro at CU, RNA at AG, backbone not given here) [compound 9]”, in the data set with ADAMTS5 [1], the “% inhibitory activity” value was 5.9%. Turning to “10 (AUUGGGGCCUCCACAGCUGCUCAGCUUGGACUAAACCAAU; 2'-F and 2'-O-methyl modifications at positions not given here) [compound 10]”, the “inhibition rate % (10 nM aptamer)” value in the data set with ADAMTS5 [1] (10 nM aptamer) was 65%. For the same compound, in the data set with ADAMTS5 [1] (Table 6, 10 nM aptamer), the “inhibitory activity (%) evaluation method 1” value was 65%. For “11 (AUUGGGGCCUCCACAGCGCUCGCUUGGACUAAACCAAU; 2'-F and 2'-O-methyl modifications at positions not given here) [compound 11]”, in the data set with ADAMTS5 [1] (10 nM aptamer), the “inhibition rate % (10 nM aptamer)” value stood at 59.8%. Also, the “inhibitory activity (%) evaluation method 1” value with ADAMTS5 [1] (Table 6, 10 nM aptamer) stood at 59.8%. Consider “12 (UUGGGGCCUCCACAGCGCUCGCUUGGACUAAACCAA; chemically modified, pattern not given here) [compound 12]”, for which the “inhibition rate % (10 nM aptamer)” value with ADAMTS5 [1] (10 nM aptamer) came to 71.1%. On to “13 (GCUGGGGCCUCCACAGCGCUCGCUUGGACUAAACCAGC; chemically modified, pattern not given here) [compound 13]”, for which the “inhibitory activity (%) evaluation method 1” value with ADAMTS5 [1] (Table 6, 10 nM aptamer) was 58.4%. In the data set with ADAMTS5 [1], the “inhibitory activity against ADAMTS5 (in words, compared with parent sequence)” value was “does not affect the inhibitory activity”. For “14 (AUUGGGGCCUCCACAGCUUCGGCUUGGACUAAACCAAU; listed as RNA, chemistry not given here) [compound 14]”, the “inhibitory activity (%) evaluation method 1” value in the data set with ADAMTS5 [1] (Table 6, 10 nM aptamer) was 60.5%. Besides, the “inhibitory activity against ADAMTS5 (in words, compared with parent sequence)” value in the data set with ADAMTS5 [1] was “does not affect the inhibitory activity”.

On to “26 (GGGUAUAGGGGCCUCCACAGCGUAAGCUUGGACUUAAACCAUACCC; listed as RNA, chemistry not given here) [compound 26]”, for which, in the data set with ADAMTS5 [1] (Table 8, 30 nM aptamer), the “inhibitory activity % 30 nM aptamer” value is reported as 63.5%. One may read the IC50 as the concentration that gives 50% inhibition. On to “27 (UAUAGGGGCCUCCACAGCGUAAGCUUGGACUUAAACCAUA; aptamer; 2'-O-methyl modifications copied from another aptamer, pattern not given here, some with 3' inverted dT) [compound 27]”, for which the IC50 in the data set with ADAMTS5 [1] (Table 8, read-out: IC50) is 5.9 nM. Take “28 (CGUAGGGGCCUCCACAGCGUAAGCUUGGACUUAAACCACG; aptamer; 2'-O-methyl modifications copied from another aptamer, pattern not given here, some with 3' inverted dT) [compound 28]”: the IC50 in the data set with ADAMTS5 [1] (Table 8, read-out: IC50) came to 3.4 nM. For the same compound, in the data set with ADAMTS5 [1] (setting [3]), the “inhibitory activity (%) evaluation method 1” value is 81%. Turning to “29 (CGUAGGGGCCUCCACAGCAUUCGCUUGGACACAAACCACG; aptamer; 2'-O-methyl modifications copied from another aptamer, pattern not given here, some with 3' inverted dT) [compound 29]”, the “inhibitory activity % 10 nM aptamer” value with ADAMTS5 [1] (Table 8, 10 nM aptamer) stood at 84%. In addition, the “inhibitory activity (%) evaluation method 1” value with ADAMTS5 [1] (setting [3]) worked out at 84%. With “30 (GGGUAUUGGGGCCUCCACAAUAGAUAAAUGGACUAAACCAACUCGA; 2'-fluoro at CU, RNA at AG, backbone not given here) [compound 30]”, the binding activity entry with ADAMTS5 [2] is “++ (proportion of ADAMTS5 binding amount (RU value) to the amount of aptamer immobilized on the SA chip (RU value) of not less than 40%)”. Consider “31 (GGGUAUUGGGGCCUCCACAGUUGAAGCUUGGACUAAACCAAUCUCGA; aptamer; 2'-fluoro at CU, RNA at AG, backbone not given here) [compound 31]”, for which the binding activity entry in the data set with ADAMTS5 [2] is reported as “++ (proportion of ADAMTS5 binding amount (RU value) to the amount of aptamer immobilized on the SA chip (RU value) of not less than 40%)”. As for `Cn1nc(C(F)(F)F)c(/C=C2\SC(=S)NC2=O)c1SCc1ccc(Cl)cc1` [reference compound], the IC50 on ADAMTS5 [1] (positive control, read-out: IC50 value) worked out at 90500 nM.
